Results on 20 compounds are retold here after patent US20250011303A1, “SMALL MOLECULE MODULATORS OF IL-17A, METHODS OF MAKING AND METHODS OF USING THEREOF” (ASCLETIS BIOSCIENCE CO., LTD, priority 2023, published 2025).

Like-named read-outs stand apart in the source and are kept apart here.

Data set [1] in a line: Pharmacokinetics after oral gavage in fasted SD rats. Type of data set: in vivo. As to conditions: PO 10 mg per kilogram, plasma; for AUC: 0.25-24 hours; for bioavailability: rat, 10 mg per kilogram body weight. The method, then: Compounds of the present application were formulated in 40% PEG400/10% solutol/2% Tween 80/48% saline (v/v/v/v), and administered via oral gavage (PO) at the dosages of 10 mg per kilogram body weight in fasted SD rats. Plasma samples were collected at 0.25, 0.5, 1, 2, 4, 8, and 24 hours post dosing. Compound concentration was determined by LC-MS and pharmacokinetics parameters were calculated by WinNonlin 8.2 using Non-Compartmental Analysis model.

The test system of data set [2] is HEK-Blue IL-17 cells with rhIL-17A/A. As to the kind of experiment: HEK-Blue IL-17 cell assay (SEAP reporter, rhIL-17A/A stimulation). Type of data set: cell-based, human. As to conditions: 20 hours incubation, absorbance at 405 nm, read-out: IC50 in HEK-Bule cell Assay. As for the experimental part: • 1. The test Compounds were 3-fold serial diluted from 10 mM for 10 doses in DMSO. • 2. Prepare Reference Compounds (IL-17A-Inhibitor-1) were 3-fold serial diluted from 1 mM for 10 doses in DMSO. • 3. Prepare 1000× Positive control (1 mM IL-17A-Inhibitor-1) and 1000× vehicle control (100% DMSO).
• a) Cells were cultured as the HEK-Blue™ IL-17 technical data sheet recommended. HEK-Blue IL-17 cells were assayed in the exponential growth phase. • b) Aspirate growth medium and rinse cells twice with PBS to remove phenol red. • c) Resuspend cells in test medium to a proper concentration. • d) Only cells with viability greater than 90% were used for assays. • e) Transfer 25 nl of compound dilutions into 384-well assay plates using Echo655; • f) Seed 25 ul of HEK-Blue IL-17 cells at 8,000 cells/well into 384-well plate with rhIL-17A/A. • g) Cells were incubated for 20 hours at 37° C. under 5% CO2 atmosphere. • h) Transfer 2 ul of cells supernatant into per well of 384-well assay plates. • i) Add 20 ul of PNPP substrate. • j) Measure the Absorbance at 405 nm on Envision 2105 plate reader.
RLU signal (LUMcmpd) is calculated for each well.
% Inhibition is calculated as follow: […]
Signalave_pc: The average signal for the positive controls across the plate.
Signalave_vc: The average signal for negative controls across the plate.
Calculate IC50 and Plot effect-dose curve of cmpds:
Calculate IC50 by fitting % Inhibition values and log of compound concentrations to nonlinear regression (dose response−variable slope) with Graphpad 8.0.

What is called bioavailability is the share of a dose that reaches the circulation, judged against a reference dose that is usually intravenous. Read a high bioavailability as much systemic uptake. As usually defined, the IC50 is the concentration at which inhibition is half-maximal. As to `CC(C)[C@H]1C[C@@H](C(=O)N2CC(F)(F)C2)c2ccc(NC(=O)[C@@H](NC(=O)c3ccnn3C(C)C)C3CCCCCC3)cc2O1` [Compound 204], in data set [1], the AUC turned out to be 18980 ng · h/m and the bioavailability amounted to 34.8%. Besides, the IC50 in data set [2] (Homo sapiens, HEK-Blue, 20 h) worked out at 46.6 nM. For `CC(C)[C@H]1C[C@@H](C(=O)N2CC(F)(F)C2)c2ccc(NC(=O)[C@@H](NC(=O)c3ccnn3C(C)C)C(C3CC3)C3CC3)cc2O1` [Compound 161] the same measures were 9703 ng · h/m, 63.5% and 43.3 nM. For `CC(C)n1nccc1C(=O)N[C@H](C(=O)Nc1cc2c(cc1F)[C@H](C(=O)N1CC(F)(F)C1)C[C@H](C1CC(F)(F)C1)O2)[C@H]1CC[C@H](C)CC1` [Compound 248] the same measures were 6093 ng · h/m, 70.7% and 24.4 nM.

Regarding `CC(C)[C@@H]1C[C@@H](C(=O)N2CC(F)(F)C(F)(F)C2)c2ccc(NC(=O)[C@@H](NC(=O)c3ccnn3C(C)C)C3CCCCCC3)cc2O1` [Compound 217], in data set [2] (Homo sapiens, HEK-Blue, 20 h), the IC50 was 199 nM. Same read-out and setting: then `CC(C)n1nccc1C(=O)N[C@H](C(=O)Nc1ccc2c(c1)O[C@@H](C1CC(F)(F)C1)C[C@H]2C(=O)N1CC(F)(F)C1)C1CCCCCC1` [Compound 135], with 18.9 nM. Still for that read-out and setting: then `CC(C)n1nccc1C(=O)N[C@H](C(=O)Nc1ccc2c(c1)OC(C)(C)CC2C(=O)N1CC(F)(F)C1)C1CCCCCC1` (stereo partly shown) [Compound 200], with 200 nM; and `CC(C)C1CN(C(=O)N2CC(F)(F)C2)c2ccc(NC(=O)[C@@H](NC(=O)c3ccnn3C(C)C)C(C3CC3)C3CC3)cc2O1` (stereo partly shown) [Compound 247], with 30.4 nM; and `CC(C)n1nccc1C(=O)N[C@H](C(=O)Nc1ccc2c(c1)OC(C1CC(F)(F)C1)CC2C(=O)N1CC(C(F)(F)F)C1)C1CCCCCC1` (stereo partly shown) [Compound 231], with 116 nM. The same measure, in the same setting: then `CC(C)n1nccc1C(=O)N[C@H](C(=O)Nc1cc2c(cc1F)C(C(=O)N1CC(F)(F)C1)CC1(CCOCC1)O2)C1CCCCCC1` (stereo partly shown) [Compound 236], with 14.9 nM; and `CC(C)n1nccc1C(=O)N[C@H](C(=O)Nc1cc2c(cc1F)[C@H](C(=O)N1CC(F)(F)C1)C[C@H](C1CC(F)(F)C1)O2)C(C1CC1)C1CC1` [Compound 245], with 22 nM.

As to `CC(C)n1nccc1C(=O)N[C@H](C(=O)Nc1ccc2c(c1)OC(C1CCC1)CC2C(=O)N1CC(F)(F)C(F)(F)C1)C1CCCCCC1` (stereo partly shown) [Compound 210], the IC50 in data set [2] (Homo sapiens, HEK-Blue, 20 h) was 251 nM.

Regarding `CC(C)n1nccc1C(=O)N[C@H](C(=O)Nc1ccc2c(c1)OC(C)(C)CN2C(=O)N1CC(F)(F)C1)C1CCCCCC1` [Compound 166], in data set [2] (Homo sapiens, HEK-Blue, 20 h), the IC50 stood at 54.5 nM.

On to `CC(C)n1nccc1C(=O)N[C@H](C(=O)Nc1ccc2c(c1)OCC(C)(C)[C@H]2NC(=O)CCC(F)(F)F)C1CCCCCC1` [Compound 12], for which the IC50 in data set [2] (Homo sapiens, HEK-Blue, 20 h) was found to be 317 nM. On the same count and under the same terms, then `CC(C)n1nccc1C(=O)N[C@H](C(=O)Nc1ccc2c(c1)OC1(CCOCC1)C[C@H]2C(=O)N1CC(F)(F)C1)C(C1CC1)C1CC1` [Compound 162], with 35.7 nM.

`CC(C)n1nccc1C(=O)N[C@H](C(=O)Nc1ccc2c(c1)OCC[C@H]2C(=O)N1CC(F)(F)C(F)(F)C1)C1CCCCCC1` [Compound 36]: the half-maximal inhibitory concentration (IC50) in data set [2] (Homo sapiens, HEK-Blue, 20 h) turned out to be 154 nM.

`CC(C)n1nccc1C(=O)N[C@H](C(=O)Nc1ccc2c(c1)OC(C1CCCC1)CC2C(=O)N1CC(F)(F)C(F)(F)C1)C1CCCCCC1` (stereo partly shown) [Compound 211]: the IC50 in data set [2] (Homo sapiens, HEK-Blue, 20 h) is 259 nM. In data set [1], `CC(C)n1nccc1C(=O)N[C@H](C(=O)Nc1ccc2c(c1)OC1(CCC(F)(F)CC1)CC2C(=O)N1CC(F)(F)C1)C1CCCCCC1` (stereo partly shown) [Compound 225] displayed an AUC of 7840 ng · h/m and a bioavailability of 57.6%. Further, the IC50 in data set [2] (Homo sapiens, HEK-Blue, 20 h) was found to be 44.9 nM. With `CC(C)n1nccc1C(=O)N[C@H](C(=O)Nc1ccc2c(c1)OC(C1CCCCC1)CC2C(=O)N1CC(F)(F)C1)C1CCCCCC1` (stereo partly shown) [Compound 212], the IC50 in data set [2] (Homo sapiens, HEK-Blue, 20 h) turned out to be 213 nM. With `CC(C)n1nccc1C(=O)N[C@H](C(=O)Nc1ccc2c(c1)O[C@@H](C1CC(F)(F)C1)C[C@H]2C(=O)N1CC(F)(F)C1)C(C1CC1)C1CC1` [Compound 160], the IC50 in data set [2] (Homo sapiens, HEK-Blue, 20 h) was 42.1 nM. For the compound `CC(C)n1nccc1C(=O)N[C@H](C(=O)Nc1ccc2c(c1)O[C@H](C1CC(F)(F)C1)C[C@H]2C(=O)N1CC(F)(F)C1)C1CCCCCC1` [Compound 226], the IC50 in data set [2] is 48.9 nM.
